From US9242996B2 (Novartis AG, priority 2013, dated 2016)

target: activated ERK2 (Homo sapiens (Human), UniProt P28482); assay: Activated ERK2 kinase assay, ERK2 New conditions (AlphaScreen, ERKtide phosphorylation); type: biochemical; conditions: 0.25 nM ERK2, 200 nM ERKtide peptide, 35 μM ATP, 30 min preincubation
Method: The assay is carried out in 50 mM HEPES [pH 7.5], 5 mM MgCl2, 1 mM DTT, 0.01% Tween-20, 0.05% BSA using 0.25 nM ERK2, 200 nM ERKtide peptide and 35 μM ATP (all concentrations are final in the reaction) in a total volume of 10.25 μL. […] Compound dilution series are prepared in 100% DMSO. ERK2 is preincubated with compounds for 30 minutes at ambient temperature. Reaction is initiated by addition of a substrate cocktail of ERKtide peptide and ATP and is allowed to proceed for 2-3 hours at ambient temperature. Reaction is terminated by addition of 10 μL of a 2× stop buffer consisting of 100 mM Tris-Cl [pH 7.5], 25 mM EDTA, 0.01% Tween 20, 10 μg/mL of AlphaScreen Protein A Acceptor Beads, 10 μg/mL of Streptavidin Donor Beads (PerkinElmer, Waltham, Mass.), and 1.4 μg/mL phospho-EGF Receptor (Thr669) antibody (Cat #3056, Cell Signaling Technology, Danvers, Mass.). Terminated reactions are read, after overnight incubation in the dark, on an EnVision Multilabel Plate Reader (PerkinElmer, Waltham, Mass.), with excitation and emission wavelengths set to 680 nm and 570 nm, respectively. IC50 values are determined using a four-parameter fit.

Sequence of activated ERK2 (P28482 whole entry): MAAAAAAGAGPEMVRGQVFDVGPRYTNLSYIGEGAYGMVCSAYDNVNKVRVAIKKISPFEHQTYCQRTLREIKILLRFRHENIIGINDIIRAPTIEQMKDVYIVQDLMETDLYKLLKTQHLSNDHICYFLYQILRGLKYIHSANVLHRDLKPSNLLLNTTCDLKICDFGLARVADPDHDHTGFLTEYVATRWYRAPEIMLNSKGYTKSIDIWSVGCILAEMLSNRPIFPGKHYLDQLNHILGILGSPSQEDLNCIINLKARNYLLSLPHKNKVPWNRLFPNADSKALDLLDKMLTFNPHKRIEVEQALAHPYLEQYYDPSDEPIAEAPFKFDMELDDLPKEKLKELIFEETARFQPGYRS

Question: For `C[C@@H](NC(=O)c1ccc(-c2cc(C3CCC(=O)NC3)cnc2N)cc1F)c1cccc(Cl)c1` (mixture of isomers) [Example 119, 4-(2-amino-5-(6-oxopiperidin-3-yl)pyridin-3-yl)-N-((R)-1-(3-chlorophenyl)ethyl)-2-fluorobenzamide], which IC50 is on record?
Answer: Its IC50 is 0.549 nM.

Question: How did the IC50 turn out when `COC1CCCC(c2cnc(N)c(-c3ccc(C(=O)N[C@H](CO)c4cccc(Cl)c4)c(F)c3)n2)C1` (mixture of isomers) [Example 123, cis-4-(3-amino-6-(3-methoxycyclohexyl)pyrazin-2-yl)-N-((S)-1-(3-chlorophenyl)-2-hydroxyethyl)-2-fluorobenzamide] was run?
Answer: The IC50 was 0.593 nM.

Question: Which IC50 does the source give for `Nc1ncc(C2CCS(=O)(=O)C2)cc1-c1ccc(C(=O)NCc2ccccc2)c(F)c1` (racemic) [Example 4, 4-(2-amino-5-(1,1-dioxidotetrahydrothiophen-3-yl)pyridin-3-yl)-N-benzyl-2-fluorobenzamide] here?
Answer: Its IC50 is 315 nM.

Question: `Nc1ncc([C@H]2CCC[C@@H](O)C2)nc1-c1ccc(C(=O)NCc2ccccc2)c(F)c1` (racemic) [Example 12, (+/−)-4-(3-amino-6-((1S,3R)-3-hydroxycyclohexyl)pyrazin-2-yl)-N-benzyl-2-fluorobenzamide] was tested. Which IC50 did it give?
Answer: The IC50 was 39.6 nM.

Question: For `CS(=O)(=O)[C@@H]1CCC[C@@H](c2cnc(N)c(-c3ccc(C(=O)NCc4ccccc4)c(F)c3)n2)C1` (racemic) [Example 13, (+/−)-4-(3-amino-6-((1R,3R)-3-(methylsulfonyl)cyclohexyl)pyrazin-2-yl)-N-benzyl-2-fluorobenzamide], which IC50 is on record?
Answer: The IC50 was 361 nM.

Question: For `Nc1ncc(C2CCOCC2)nc1-c1ccc(C(=O)NC(c2ccccc2)C(F)F)c(F)c1` (racemic) [Example 50, (+/−)-4-(3-amino-6-(tetrahydro-2H-pyran-4-yl)pyrazin-2-yl)-N-(2,2-difluoro-1-phenylethyl)-2-fluorobenzamide], which IC50 is on record?
Answer: The IC50 was 8.39 nM.

Question: How did the IC50 turn out when `Nc1ncc(C2CCOCC2)nc1-c1ccc(C(=O)NC(c2ccccc2)C(F)(F)F)c(F)c1` (racemic) [Example 51, (+/−)-4-(3-amino-6-(tetrahydro-2H-pyran-4-yl)pyrazin-2-yl)-2-fluoro-N-(2,2,2-trifluoro-1-phenylethyl)benzamide] was run?
Answer: Its IC50 is 27 nM.

Question: With `CC(CO)c1cnc(N)c(-c2ccc(C(=O)NCc3ccccc3)c(F)c2)n1` (racemic) [Example 115, (+/−)-4-(3-amino-6-(1-hydroxypropan-2-yl)pyrazin-2-yl)-N-benzyl-2-fluorobenzamide] as the compound, how does the IC50 read?
Answer: The IC50 was 274 nM.

Question: Which IC50 does the source give for `Nc1ncc(C2CCC(=O)NC2)nc1-c1ccc(C(=O)NCc2ccccc2)c(F)c1` (racemic) [Example 117, (+/−)-4-(3-amino-6-(6-oxopiperidin-3-yl)pyrazin-2-yl)-N-benzyl-2-fluorobenzamide] here?
Answer: Its IC50 is 4.79 nM.

Question: `Nc1ncc(C2CCC(=O)NC2)cc1-c1ccc(C(=O)NCc2ccccc2)c(F)c1` (racemic) [Example 118, (+/−)-4-(2-amino-5-(6-oxopiperidin-3-yl)pyridin-3-yl)-N-benzyl-2-fluorobenzamide] was tested. Which IC50 did it give?
Answer: Its IC50 is 17.6 nM.

Question: How did the IC50 turn out when `CO[C@@H]1CCC[C@H](c2cnc(N)c(-c3ccc(C(=O)NCc4ccccc4)c(F)c3)n2)C1` (racemic) [Example 124, (+/−)-cis-4-(3-amino-6-(3-methoxycyclohexyl)pyrazin-2-yl)-N-benzyl-2-fluorobenzamide] was run?
Answer: Its IC50 is 62.6 nM.

Question: `Nc1ncc([C@@H]2CCS(=O)(=O)C2)cc1-c1ccc(C(=O)NCc2ccccc2)c(F)c1` (single isomer, unassigned) [Example 5] was tested. Which IC50 did it give?
Answer: Its IC50 is 278 nM.

Question: For `Nc1ncc([C@H]2CCS(=O)(=O)C2)cc1-c1ccc(C(=O)NCc2ccccc2)c(F)c1` (single isomer, unassigned) [Example 6], which IC50 is on record?
Answer: Its IC50 is 354 nM.

Question: For `CN(Cc1ncccn1)C(=O)c1ccc(-c2cc(C3CCOCC3)cnc2N)cc1F` [Example 3, 4-(2-amino-5-(tetrahydro-2H-pyran-4-yl)pyridin-3-yl)-2-fluoro-N-methyl-N-(pyrimidin-2-ylmethyl)benzamide], which IC50 is on record?
Answer: The IC50 was 12300 nM.
